Legend:
[1] = tested on: HBV replication in HepAD38 cells; test: Anti-HBV replication assay in HepAD38 cells (QPCR of extracellular HBV DNA); type: cell-based, HBV (genotype D, serotype ayw); conditions: Hepatitis B virus, 168 h, 7 days incubation, extracellular HBV DNA by QPCR, read-out: Anti-HBV EC50
Procedure, shortened: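 Steps: seed HepAD38 overnight without tetracycline; refresh medium and add 1 log10 serial dilutions ([…]); incubate 7 days at 37 °C; quantify supernatant HBV DNA by QPCR; derive EC50 from a 4-parameter dose-response fit.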

[2] = In vitro cytotoxicity assay (MTT cell viability) in HepG2 cells; type: cell-based, human; conditions: human
Procedure, shortened: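 HepG2 seeded overnight, then 7-day compound exposure (30 μM–1.0 nM, half-log steps), 37 °C. MTT 3-4 h, DMSO solubilization, A492. % of vehicle → CC50, 4-PL fit.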

Cc1noc([C@@H](C)NC(=O)C(=O)c2c(C)c(C(=O)Nc3ccc(F)c(Cl)c3)c3n2CCCC3)n1 [Example 447, (R)-N-(3-chloro-4-fluorophenyl)-2-methyl-3-(2-((1-(3-methyl-1,2,4-oxadiazol-5-yl)ethyl)amino)-2-oxoacetyl)-5,6,7,8-tetrahydroindolizine-1-carboxamide]
EC50 [1]: < 50 nM | CC50 at 7 days [2]: 5000 to 30000 nM

Cc1cc(NC(=O)c2c(C)c(C(=O)C(=O)NC(C)(C)COC(F)F)n(C)c2C)ccc1F [Example 718, 5-(2-((1-(difluoromethoxy)-2-methylpropan-2-yl)amino)-2-oxoacetyl)-N-(4-fluoro-3-methylphenyl)-1,2,4-trimethyl-1H-pyrrole-3-carboxamide]
EC50 [1]: < 50 nM | CC50 at 7 days [2]: 5000 to 30000 nM

Cc1cc(NC(=O)c2c(Cl)c(C(=O)C(=O)N[C@@H]3CCC[C@@H]3O)n(C)c2C)ccc1F [Example 367, 4-chloro-N-(4-fluoro-3-methylphenyl)-5-(2-(((1R,2S)-2-hydroxycyclopentyl)aminO)-2-oxoacetyl)-1,2-dimethyl-1H-pyrrole-3-carboxamide]
EC50 [1]: < 50 nM | CC50 at 7 days [2]: 5000 to 30000 nM

CC[C@@H](CO)NC(=O)C(=O)c1c(C)c(C(=O)Nc2cnc(F)c(C)c2)c(C)n1C [Example 186, (S)-N-(6-fluoro-5-methylpyridin-3-yl)-5-(2-((1-hydroxybutan-2-yl)amino)-2-oxoacetyl)-1,2,4-trimethyl-1H-pyrrole-3-carboxamide]
EC50 [1]: 50 to 499 nM | CC50 at 7 days [2]: > 30000 nM

Cc1cc(NC(=O)c2c(C)c(C(=O)C(=O)N[C@H]3CNC(=O)C3(C)C)n(C)c2C)ccc1F [Example 621, (R)-5-(2-((4,4-dimethyl-5-oxopyrrolidin-3-yl)amino)-2-oxoacetyl)-N-(4-fluoro-3-methylphenyl)-1,2,4-trimethyl-1H-pyrrole-3-carboxamide]
EC50 [1]: < 50 nM | CC50 at 7 days [2]: > 30000 nM

COCC(C)(C)NC(=O)C(=O)c1c(C)c(C(=O)Nc2ccc(F)c(C)c2)c(C)n1C [Example 169, N-(4-fluoro-3-methylphenyl)-5-(2-((1-methoxy-2-methylpropan-2-yl)amino)-2-oxoacetyl)-1,2,4-trimethyl-1H-pyrrole-3-carboxamide]
EC50 [1]: < 50 nM | CC50 at 7 days [2]: > 30000 nM

Cc1cc(NC(=O)c2c(C)c(C(=O)C(=O)NCCc3ccsc3)n(C)c2C)ccc1F [Example 646, N-(4-fluoro-3-methylphenyl)-1,2,4-trimethyl-5-(2-oxo-2-((2-(thiophen-3-yl)ethyl)amino)acetyl)-1H-pyrrole-3-carboxamide]
EC50 [1]: < 50 nM | CC50 at 7 days [2]: 5000 to 30000 nM

Cc1cc(NC(=O)c2c(C)c(C(=O)C(=O)N[C@H]3CC[C@@](C)(O)CC3)n(C)c2C)ccc1F [Example 214, N-(4-fluoro-3-methylphenyl)-5-(2-(((1s,4s)-4-hydroxy-4-methylcyclohexyl)amino)-2-oxoacetyl)-1,2,4-trimethyl-1H-pyrrole-3-carboxamide]
EC50 [1]: < 50 nM | CC50 at 7 days [2]: > 30000 nM

CC[C@H](C)NC(=O)C1(NC(=O)C(=O)c2c(C)c(C(=O)Nc3ccc(F)c(C)c3)c(C)n2C)CCOCC1 [Example 682, (S)-5-(2-((4-(sec-butylcarbamoyl)tetrahydro-2H-pyran-4-yl)amino)-2-oxoacetyl)-N-(4-fluoro-3-methylphenyl)-1,2,4-trimethyl-1H-pyrrole-3-carboxamide]
EC50 [1]: < 50 nM | CC50 at 7 days [2]: > 30000 nM

Cc1cc(NC(=O)c2c(C)c(C(=O)C(=O)NC(C)(C)CCO)n(C)c2C)ccc1F [Example 11, N-(4-fluoro-3-methylphenyl)-5-(2-((4-hydroxy-2-methylbutan-2-yl)amino)-2-oxoacetyl)-1,2,4-trimethyl-1H-pyrrole-3-carboxamide]
EC50 [1]: < 50 nM | CC50 at 7 days [2]: > 30000 nM

Cc1[nH]c(C(=O)C(=O)NC(C)(C)C)c(C)c1C(=O)Nc1ccc(F)c(Cl)c1 [Example 3, 5-(2-(tert-butylamino)-2-oxoacetyl)-N-(3-chloro-4-fluorophenyl)-2,4-dimethyl-1H-pyrrole-3-carboxamide]
EC50 [1]: < 50 nM | CC50 at 7 days [2]: 5000 to 30000 nM

Cc1noc([C@@H](C)NC(=O)C(=O)c2c(Cl)c(C(=O)Nc3ccc(F)c(C)c3)c3n2CCCC3)n1 [Example 495, (R)-2-chloro-N-(4-fluoro-3-methylphenyl)-3-(2-((1-(3-methyl-1,2,4-oxadiazol-5-yl)ethyl)amino)-2-oxoacetyl)-5,6,7,8-tetrahydroindoliizine-1-carboxamide]
EC50 [1]: < 50 nM | CC50 at 7 days [2]: 5000 to 30000 nM

Cc1cc(NC(=O)c2c(Cl)c(C(=O)C(=O)NCC(C)(C)O)n3c2CCCC3)cnc1F [Example 529, 2-chloro-N-(6-fluoro-5-methylpyridin-3-yl)-3-(2-((2-hydroxy-2-methylpropyl)amino)-2-oxoacetyl)-5,6,7,8-tetrahydroindolizine-1-carboxamide]
EC50 [1]: > 1000 nM | CC50 at 7 days [2]: > 30000 nM

Cc1noc([C@@H](C)NC(=O)C(=O)c2c(Cl)c(C(=O)Nc3cnc(F)c(C)c3)c3n2CCC3)n1 [Example 735, (R)-6-chloro-N-(6-fluoro-5-methylpyridin-3-yl)-5-(2-((1-(3-methyl-1,2,4-oxxadiazol-5-yl)ethyl)amino)-2-oxoacetyl)-2,3-dihydro-1H-pyrrolizine-7-carboxamide]
EC50 [1]: 50 to 499 nM | CC50 at 7 days [2]: 5000 to 30000 nM

Cc1cc(NC(=O)c2c(C)c(C(=O)C(=O)N[C@H]3C[C@H](O)C3)n(C)c2C)ccc1F [Example 129, N-(4-fluoro-3-methylphenyl)-5-(22-(((1r,3r)-3-hydroxycyclobutyl)amino)-2-oxoacetyl)-1,2,4-trimethyl-1H-pyrrole-3-carboxamide]
EC50 [1]: < 50 nM | CC50 at 7 days [2]: > 30000 nM

Cc1cc(NC(=O)c2c(C)c(C(=O)C(=O)NCCCN3CCOCC3)n(C)c2C)ccc1F [Example 301, N-(4-fluoro-3-methylphenyl)-1,2,4-trimethyl-5-(2-((3-morpholinopropyl)amino)-2-oxoacetyl)-1H-pyrrole-3-carboxamide]
EC50 [1]: < 50 nM | CC50 at 7 days [2]: > 30000 nM

Cc1cc(NC(=O)c2c(C)c(C(=O)C(=O)NC3(C(N)=O)CCCC3)n(C)c2C)ccc1F [Example 38, 5-(2-((1-carbamoylcyclopentyl)amino)-2-oxoacetyl)-N-(4-fluoro-3-methylphenyl)-1,2,4-trimethyl-1H-pyrrole-3-carboxamide]
EC50 [1]: < 50 nM | CC50 at 7 days [2]: > 30000 nM

Cc1cc(NC(=O)c2c(Cl)c(C(=O)C(=O)NC3(CO)CCC3)n3c2CCC3)ccc1F [Example 541, 6-chloro-N-(4-fluoro-3-methylphenyl)-5-(2-((1-(hydroxymethyl)cyclobutyl)amino)-2-oxoacetyl)-2,3-dihydro-1H-pyrrolizine-7-carboxamide]
EC50 [1]: < 50 nM | CC50 at 7 days [2]: > 30000 nM

Cc1c(C(=O)Nc2ccnc(F)c2)c(C)n(C)c1C(=O)C(=O)N[C@H](C)C(F)(F)F [Example 170, (R)—N-(2-fluoropyridin-4-yl)-1,2,4-trimethyl-5-(2-oxo-2-((1,1,1-trifluoropropan-2-yl)amino)acetyl)-1H-pyrrole-3-carboxamide]
EC50 [1]: < 50 nM | CC50 at 7 days [2]: > 30000 nM

CC(C)(CO)CNC(=O)C(=O)c1c(Cl)c(C(=O)Nc2ccc(F)c(Cl)c2)c2n1CCCC2 [Example 527, 2-chloro-N-(3-chloro-4-fluorophenyl)-3-(2-((3-hydroxy-2,2-dimethylpropyl)amino)-2-oxoacetyl)-5,6,7,8-tetrahydroindolizine-1-carboxamide]
EC50 [1]: 500 to 1000 nM | CC50 at 7 days [2]: 500 to 4990 nM

Cc1cc(NC(=O)c2c(C)c(C(=O)C(=O)NCC(C)(C)O)n3c2CCCC3)cnc1F [Example 477, N-(6-fluoro-5-methylpyridin-3-yl)-3-(2-((2-hydroxy-2-methylpropyl)amino)-2-oxoacetyl)-2-methyl-5,6,7,8-tetrahydroindolizine-1-carboxamide]
EC50 [1]: > 1000 nM | CC50 at 7 days [2]: > 30000 nM

Cc1cc(NC(=O)c2c(C)c(C(=O)C(=O)N3CCC(O)CC3)n(C)c2C)ccc1F [Example 47, N-(4-fluoro-3-methylphenyl)-5-(2-(4-hydroxypiperidin-1-yl)-2-oxoacetyl)-1,2,4-trimethyl-1H-pyrrole-3-carboxamide]
EC50 [1]: 50 to 499 nM | CC50 at 7 days [2]: 500 to 4990 nM

Cc1cc(NC(=O)c2c(C)c(C(=O)C(=O)NC3CCN(c4cccnc4)CC3)n(C)c2C)ccc1F [Example 663, N-(4-fluoro-3-methylphenyl)-1,2,4-trimethyl-5-(2-oxo-2-((1-(pyridin-3-yl)piperidin-4-yl)amino)acetyl)-1H-pyrrole-3-carboxamide]
EC50 [1]: < 50 nM | CC50 at 7 days [2]: > 30000 nM

Cc1cc(NC(=O)c2c(C)c(C(=O)C(=O)Nc3ccc(F)c(F)c3)n(C)c2C)cnc1F [Example 341, 5-(2-((3,4-difluorophenyl)amino)-2-oxoacetyl)-N-(5-fluoro-5-methylpyridin-3-yl)-1,2,4-trimethyl-1H-pyrrole-3-carboxamide]
EC50 [1]: 50 to 499 nM | CC50 at 7 days [2]: > 30000 nM

Cc1c(C(=O)Nc2ccc(F)c(Cl)c2)c2n(c1C(=O)C(=O)N[C@H]1CCC[C@H]1O)CCCC2 [Example 451, N-(3-chloro-4-fluorophenyl)-3-(2-(((1S,2R)-2-hydroxycyclopentyl)amino)-2-oxoacetyl)-2-methyl-5,6,7,8-tetrahydroindolizine-1-carboxamide]
EC50 [1]: 50 to 499 nM | CC50 at 7 days [2]: 5000 to 30000 nM

Cc1cc(NC(=O)c2c(C)c(C(=O)C(=O)Nc3ccccn3)n(C)c2C)ccc1F [Example 276, N-(4-fluoro-3-methylphenyl)-1,2,4-trimethyl-5-(2-oxo-2-(pyridin-2-ylamino)acetyl)-1H-pyrrole-3-carboxamide]
EC50 [1]: < 50 nM | CC50 at 7 days [2]: > 30000 nM

Cc1c(C(=O)Nc2ccc(F)nc2)c(C)n(C)c1C(=O)C(=O)NC1C2CC3CC(C2)CC1C3 (stereo not drawn) [Example 91, 5-(2-(((1r,3r)-adamantan-2-yl)amino)-2-oxoacetyl)-N-(6-fluoropyridin-3-yl)-1,2,4-trimethyl-1H-pyrrole-3-carboxamide]
EC50 [1]: < 50 nM | CC50 at 7 days [2]: > 30000 nM

Reference: patent US20190375708A1 (VenatoRx Pharmaceuticals, Inc., priority 2018, published 2019)
